Reference: US11524968B2, “Heterocyclic compound as a protein kinase inhibitor” (HK inno.N Corporation, priority 2017, dated 2022)

Molecular target: JAK1 (Homo sapiens (Human), UniProt P23458)
Test: Analysis of JAK1 activity inhibition ability (ADP-Glo Kinase Assay)
Format: biochemical
Details: JAK1 enzyme, ADP-Glo luminescence, ATP 250 uM, IRS-itide substrate, 30° C. 40 minutes; read-out: IC50
Method in brief: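 ADP-Glo luminescence read-out of ADP production, with IC50 taken as the concentration halving JAK1 activity relative to control. Enzyme was incubated 40 min at 30 °C with compound, IRS-itide (40 ng/mL) and ATP (250 uM), concentrations as prepared in pH 7.5 Tris-HCl/MgCl2/BSA/DTT buffer.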

Chain of JAK1 (P23458 whole entry): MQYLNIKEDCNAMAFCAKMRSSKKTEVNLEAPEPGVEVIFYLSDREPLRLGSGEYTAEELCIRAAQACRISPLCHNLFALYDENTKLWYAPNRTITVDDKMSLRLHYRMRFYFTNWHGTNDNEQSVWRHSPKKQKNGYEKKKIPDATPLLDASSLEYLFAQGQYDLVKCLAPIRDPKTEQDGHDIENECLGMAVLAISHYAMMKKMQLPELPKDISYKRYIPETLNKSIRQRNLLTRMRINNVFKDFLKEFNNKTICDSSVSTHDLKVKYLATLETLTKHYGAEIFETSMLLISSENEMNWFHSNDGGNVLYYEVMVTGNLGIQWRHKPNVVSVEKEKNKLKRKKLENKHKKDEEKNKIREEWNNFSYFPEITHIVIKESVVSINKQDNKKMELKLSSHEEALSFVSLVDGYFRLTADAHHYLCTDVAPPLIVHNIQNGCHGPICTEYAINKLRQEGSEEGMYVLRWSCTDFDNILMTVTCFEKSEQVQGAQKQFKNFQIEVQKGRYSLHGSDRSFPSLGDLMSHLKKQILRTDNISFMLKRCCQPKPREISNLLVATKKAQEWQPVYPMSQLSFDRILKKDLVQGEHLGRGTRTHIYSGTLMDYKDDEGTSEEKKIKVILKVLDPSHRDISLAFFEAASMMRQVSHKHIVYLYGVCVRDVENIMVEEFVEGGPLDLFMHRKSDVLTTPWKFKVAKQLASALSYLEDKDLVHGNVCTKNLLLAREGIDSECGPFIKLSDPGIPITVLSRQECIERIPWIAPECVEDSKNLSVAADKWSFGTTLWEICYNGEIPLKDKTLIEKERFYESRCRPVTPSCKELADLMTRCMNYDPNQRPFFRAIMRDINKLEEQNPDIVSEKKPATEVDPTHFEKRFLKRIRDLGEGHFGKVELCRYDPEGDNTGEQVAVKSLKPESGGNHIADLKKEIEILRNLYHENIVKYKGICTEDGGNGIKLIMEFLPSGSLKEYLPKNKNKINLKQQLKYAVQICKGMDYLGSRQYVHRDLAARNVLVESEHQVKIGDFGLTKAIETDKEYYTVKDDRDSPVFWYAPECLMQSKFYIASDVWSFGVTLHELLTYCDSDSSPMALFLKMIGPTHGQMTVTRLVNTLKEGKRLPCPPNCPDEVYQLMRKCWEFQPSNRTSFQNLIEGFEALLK

IC50 | SMILES
< 20 nM | CC1CN(C(=O)CCC#N)CC=C1c1cc(NC(=O)C2CC2)nc2[nH]ccc12 (stereo not shown) [Example 284, N-(4-(1-(3-cyanopropanoyl)-3-methyl-1,2,3,6-tetrahydropyridin-4-yl)-1H-pyrrolo[2,3-b]pyridin-6-yl)cyclopropanecarboxamide]
20 to 200 nM | CC1CN(C(=O)CCCC#N)CC=C1c1cc(NC(=O)C2CC2)nc2[nH]ccc12 (stereo not shown) [Example 285, N-(4-(1-(4-cyanobutanoyl)-3-methyl-1,2,3,6-tetrahydropyridin-4-yl)-1H-pyrrolo[2,3-b]pyridin-6-yl)cyclopropanecarboxamide]
20 to 200 nM | O=C(Nc1cc(C2=CCN(C(=O)c3cnon3)CC2)c2cc[nH]c2n1)C1CC1 [Example 286, N-(4-(1-(1,2,5-oxadiazole-3-carbonyl)-1,2,3,6-tetrahydropyridin-4-yl)-1H-pyrrolo[2,3-b]pyridin-6-yl)cyclopropanecarboxamide]
20 to 200 nM | O=C(Nc1cc(C2=CCN(C(=O)c3cnoc3)CC2)c2cc[nH]c2n1)C1CC1 [Example 287, N-(4-(1-(isoxazole-4-carbonyl)-1,2,3,6-tetrahydropyridin-4-yl)-1H-pyrrolo[2,3-b]pyridin-6-yl)cyclopropanecarboxamide]
20 to 200 nM | O=C(Nc1cc(C2=CCN(C(=O)c3ccno3)CC2)c2cc[nH]c2n1)C1CC1 [Example 288, N-(4-(1-(isoxazole-5-carbonyl)-1,2,3,6-tetrahydropyridin-4-yl)-1H-pyrrolo[2,3-b]pyridin-6-yl)cyclopropanecarboxamide]
> 200 nM | Cc1c(NC(=O)C2CC2)nc2[nH]ccc2c1C1=CCN(C(=O)CC#N)CC1 [Example 289, N-(4-(1-(2-cyanoacetyl)-1,2,3,6-tetrahydropyridin-4-yl)-5-methyl-1H-pyrrolo[2,3-b]pyridin-6-yl)cyclopropanecarboxamide]
> 200 nM | Cc1c(NC(=O)C2CC2)nc2[nH]ccc2c1C1=CCN(C(=O)CC(F)(F)F)CC1 [Example 290, N-(5-methyl-4-(1-(3,3,3-trifluoropropanoyl)-1,2,3,6-tetrahydropyridin-4-yl)-1H-pyrrolo[2,3-b]pyridin-6-yl)cyclopropanecarboxamide]
> 200 nM | O=C(Nc1cc(C2=CCN(C(=O)c3cscn3)CC2)c2cc[nH]c2n1)C1CC1 [Example 291, N-(4-(1-(thiazole-4-carbonyl)-1,2,3,6-tetrahydropyridin-4-yl)-1H-pyrrolo[2,3-b]pyridin-6-yl)cyclopropanecarboxamide]
< 20 nM | O=C(Nc1cc(C2=CCN(C(=O)c3cnsc3)CC2)c2cc[nH]c2n1)C1CC1 [Example 292, N-(4-(1-(isothiazole-4-carbonyl)-1,2,3,6-tetrahydropyridin-4-yl)-1H-pyrrolo[2,3-b]pyridin-6-yl)cyclopropanecarboxamide]
20 to 200 nM | N#Cc1ccc(C(=O)N2CC=C(c3cc(NC(=O)C4CC4)nc4[nH]ccc34)CC2)cc1 [Example 293, N-(4-(1-(4-cyanobenzoyl)-1,2,3,6-tetrahydropyridin-4-yl)-1H-pyrrolo[2,3-b]pyridin-6-yl)cyclopropanecarboxamide]
< 20 nM | CCC1CN(C(=O)CC#N)CC=C1c1cc(NC(=O)C2CC2)nc2[nH]ccc12 (stereo not shown) [Example 294, N-(4-(1-(2-cyanoacetyl)-3-ethyl-1,2,3,6-tetrahydropyridin-4-yl)-1H-pyrrolo[2,3-b]pyridin-6-yl)cyclopropanecarboxamide]
< 20 nM | CCC1CN(C(=O)CCC#N)CC=C1c1cc(NC(=O)C2CC2)nc2[nH]ccc12 (stereo not shown) [Example 295, N-(4-(1-(3-cyanopropanoyl)-3-ethyl-1,2,3,6-tetrahydropyridin-4-yl)-1H-pyrrolo[2,3-b]pyridin-6-yl)cyclopropanecarboxamide]
20 to 200 nM | CC1=C(c2cc(NC(=O)C3CC3)nc3[nH]ccc23)CCN(C(=O)CC#N)C1 [Example 296, N-(4-(1-(2-cyanoacetyl)-5-methyl-1,2,3,6-tetrahydropyridin-4-yl)-1H-pyrrolo[2,3-b]pyridin-6-yl)cyclopropanecarboxamide]
20 to 200 nM | O=C(Nc1cc(C2=CCN(C(=O)CCl)CC2)c2cc[nH]c2n1)C1CC1 [Example 298, N-(4-(1-(2-chloroacetyl)-1,2,3,6-tetrahydropyridin-4-yl)-1H-pyrrolo[2,3-b]pyridin-6-yl)cyclopropanecarboxamide]
20 to 200 nM | CC1(C)CN(C(=O)CC#N)CC=C1c1cc(NC(=O)C2CC2)nc2[nH]ccc12 [Example 299, N-(4-(1-(2-cyanoacetyl)-3,3-dimethyl-1,2,3,6-tetrahydropyridin-4-yl)-1H-pyrrolo[2,3-b]pyridin-6-yl)cyclopropanecarboxamide]
20 to 200 nM | CC1(C)CN(C(=O)CCC#N)CC=C1c1cc(NC(=O)C2CC2)nc2[nH]ccc12 [Example 300, N-(4-(1-(3-cyanopropanoyl)-3,3-dimethyl-1,2,3,6-tetrahydropyridin-4-yl)-1H-pyrrolo[2,3-b]pyridin-6-yl)cyclopropanecarboxamide]

IC50 | SMILES
> 200 nM | N#CCC(=O)N1CC=C(c2cc(NC(=O)c3ccco3)nc3[nH]ccc23)CC1 [Example 301, N-(4-(1-(2-cyanoacetyl)-1,2,3,6-tetrahydropyridin-4-yl)-1H-pyrrolo[2,3-b]pyridin-6-yl)furan-2-carboxamide]
20 to 200 nM | N#CCCC(=O)N1CC=C(c2cc(NC(=O)C3CC3)nc3[nH]ccc23)C2(CC2)C1 [Example 302, N-(4-(5-(3-cyanopropanoyl)-5-azaspiro[2.5]oct-7-en-8-yl)-1H-pyrrolo[2,3-b]pyridin-6-yl)cyclopropanecarboxamide]
< 20 nM | N#CCC(=O)N1CC=C(c2cc(NC(=O)C3CC3)nc3[nH]ccc23)C2(CC2)C1 [Example 303, N-(4-(5-(2-cyanoacetyl)-5-azaspiro[2.5]oct-7-en-8-yl)-1H-pyrrolo[2,3-b]pyridin-6-yl)cyclopropanecarboxamide]
< 20 nM | C[C@@H]1CN(C(=O)CC#N)CC=C1c1cc(NC(=O)C2CC2)nc2[nH]ccc12 [Example 304, (S)—N-(4-(1-(2-cyanoacetyl)-3-methyl-1,2,3,6-tetrahydropyridin-4-yl)-1H-pyrrolo[2,3-b]pyridin-6-yl)cyclopropanecarboxamide]
20 to 200 nM | Cc1ncc(C(=O)N2CC=C(c3cc(NC(=O)C4CC4)nc4[nH]ccc34)C(C)C2)s1 (stereo not shown) [Example 306, N-(4-(3-methyl-1-(2-methylthiazole-5-carbonyl)-1,2,3,6-tetrahydropyridin-4-yl)-1H-pyrrolo[2,3-b]pyridin-6-yl)cyclopropanecarboxamide]
> 200 nM | Cc1nc(C)c(C(=O)N2CC=C(c3cc(NC(=O)C4CC4)nc4[nH]ccc34)C(C)C2)s1 (stereo not shown) [Example 307, N-(4-(1-(2,4-dimethylthiazole-5-carbonyl)-3-methyl-1,2,3,6-tetrahydropyridin-4-yl)-1H-pyrrolo[2,3-b]pyridin-6-yl)cyclopropanecarboxamide]
20 to 200 nM | Cc1ncsc1C(=O)N1CC=C(c2cc(NC(=O)C3CC3)nc3[nH]ccc23)C(C)C1 (stereo not shown) [Example 308, N-(4-(3-methyl-1-(4-methylthiazole-5-carbonyl)-1,2,3,6-tetrahydropyridin-4-yl)-1H-pyrrolo[2,3-b]pyridin-6-yl)cyclopropanecarboxamide]
< 20 nM | CC1CN(C(=O)c2ccnc(F)c2)CC=C1c1cc(NC(=O)C2CC2)nc2[nH]ccc12 (stereo not shown) [Example 309, N-(4-(1-(2-fluoroisonicotinoyl)-3-methyl-1,2,3,6-tetrahydropyridin-4-yl)-1H-pyrrolo[2,3-b]pyridin-6-yl)cyclopropanecarboxamide]
< 20 nM | CC1CN(C(=O)c2ccnc(Cl)c2)CC=C1c1cc(NC(=O)C2CC2)nc2[nH]ccc12 (stereo not shown) [Example 310, N-(4-(1-(2-chloroisonicotinoyl)-3-methyl-1,2,3,6-tetrahydropyridin-4-yl)-1H-pyrrolo[2,3-b]pyridin-6-yl)cyclopropanecarboxamide]
20 to 200 nM | CC1CN(C(=O)c2ccc(F)c(F)c2)CC=C1c1cc(NC(=O)C2CC2)nc2[nH]ccc12 (stereo not shown) [Example 311, N-(4-(1-(3,4-difluorobenzoyl)-3-methyl-1,2,3,6-tetrahydropyridin-4-yl)-1H-pyrrolo[2,3-b]pyridin-6-yl)cyclopropanecarboxamide]
20 to 200 nM | COc1ccc(C(=O)N2CC=C(c3cc(NC(=O)C4CC4)nc4[nH]ccc34)C(C)C2)cc1F (stereo not shown) [Example 312, N-(4-(1-(3-fluoro-4-methoxybenzoyl)-3-methyl-1,2,3,6-tetrahydropyridin-4-yl)-1H-pyrrolo[2,3-b]pyridin-6-yl)cyclopropanecarboxamide]
20 to 200 nM | CC1CN(C(=O)c2ccc[nH]2)CC=C1c1cc(NC(=O)C2CC2)nc2[nH]ccc12 (stereo not shown) [Example 313, N-(4-(3-methyl-1-(1H-pyrrole-2-carbonyl)-1,2,3,6-tetrahydropyridin-4-yl)-1H-pyrrolo[2,3-b]pyridin-6-yl)cyclopropanecarboxamide]
20 to 200 nM | CC1CN(C(=O)c2ccncc2F)CC=C1c1cc(NC(=O)C2CC2)nc2[nH]ccc12 (stereo not shown) [Example 314, N-(4-(1-(3-fluoroisonicotinoyl)-3-methyl-1,2,3,6-tetrahydropyridin-4-yl)-1H-pyrrolo[2,3-b]pyridin-6-yl)cyclopropanecarboxamide]
> 200 nM | CC1CN(C(=O)c2cccc(CCN3C(=O)COCC3=O)c2)CC=C1c1cc(NC(=O)C2CC2)nc2[nH]ccc12 (stereo not shown) [Example 315, N-(4-(1-(3-(2-(3,5-dioxomorpholino)ethyl)benzoyl)-3-methyl-1,2,3,6-tetrahydropyridin-4-yl)-1H-pyrrolo[2,3-b]pyridin-6-yl)cyclopropanecarboxamide]
> 200 nM | CC1CN(C(=O)c2cccc(Nc3ccccc3)c2)CC=C1c1cc(NC(=O)C2CC2)nc2[nH]ccc12 (stereo not shown) [Example 316, N-(4-(3-methyl-1-(3-(phenylamino)benzoyl)-1,2,3,6-tetrahydropyridin-4-yl)-1H-pyrrolo[2,3-b]pyridin-6-yl)cyclopropanecarboxamide]
